Measured values reported in publication PMC4751497, “Characterization of SCO4439, a D-alanyl-D-alanine carboxypeptidase involved in spore cell wall maturation, resistance, and germination in Streptomyces coelicolor” (Scientific Reports, 2016).

Biological target: T1, His6-SCO4439 (Streptomyces coelicolor, UniProt Q9KZY7)
T1 construct: whole SCO4439 gene with N-terminal His6 tag in pET11a (pBRB7), expressed in E. coli JM109 (DE3), HisTrap purified, tag kept; native protein 84 kDa; tag followed by VARED (from primer BRB7F)
T1 sequence (Q9KZY7 entry or part of it): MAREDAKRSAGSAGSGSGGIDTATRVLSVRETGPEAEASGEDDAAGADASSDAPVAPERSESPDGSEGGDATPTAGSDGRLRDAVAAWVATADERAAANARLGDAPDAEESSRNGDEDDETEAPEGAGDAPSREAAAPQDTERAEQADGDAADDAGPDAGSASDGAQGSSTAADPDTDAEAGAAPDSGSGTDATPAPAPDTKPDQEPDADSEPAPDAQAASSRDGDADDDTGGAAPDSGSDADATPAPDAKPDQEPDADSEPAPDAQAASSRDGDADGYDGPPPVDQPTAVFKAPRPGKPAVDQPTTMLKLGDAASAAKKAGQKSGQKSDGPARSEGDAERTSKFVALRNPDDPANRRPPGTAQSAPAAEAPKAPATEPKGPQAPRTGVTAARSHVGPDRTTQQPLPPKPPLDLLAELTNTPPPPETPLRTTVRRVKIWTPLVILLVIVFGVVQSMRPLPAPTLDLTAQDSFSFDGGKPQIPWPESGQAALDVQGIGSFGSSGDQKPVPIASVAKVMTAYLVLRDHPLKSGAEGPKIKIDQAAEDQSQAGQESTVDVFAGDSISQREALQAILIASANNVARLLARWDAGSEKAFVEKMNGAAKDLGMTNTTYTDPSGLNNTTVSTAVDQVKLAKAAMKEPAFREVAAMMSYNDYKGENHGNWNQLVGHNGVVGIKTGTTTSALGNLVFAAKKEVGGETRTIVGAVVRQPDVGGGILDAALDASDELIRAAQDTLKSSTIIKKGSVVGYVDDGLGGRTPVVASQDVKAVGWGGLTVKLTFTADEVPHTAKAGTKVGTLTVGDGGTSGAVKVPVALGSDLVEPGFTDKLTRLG
Assay: D-Ala release, D-amino acid oxidase-peroxidase coupled colorimetric assay
Type: biochemical

CC1(C)S[C@@H]2[C@H](NC(=O)Cc3ccccc3)C(=O)N2[C@H]1C(=O)O [penicillin G]
IC50: 1000 µM
